# Measured values published in patent publication US8044211B2 (Chroma Therapeutics Ltd., priority 2006, dated 2011).
# Biological target: T1, p38 MAP Kinase a (Homo sapiens, UniProt Q16539)
# T1 construct: purchased Upstate (Dundee UK)
# Assay: p38 MAP Kinase activity, radiometric filter-binding assay (Upstate)
# Type: biochemical
# Details: IC50 range; ATP at or close to Km; read-out: Inhibitor activity versus p38 MAPKa
# Method: The ability of compounds to inhibit p38 MAP a Kinase activity was measured in an assay performed by Upstate (Dundee UK). In a final reaction volume of 25 μL, p38 MAP Kinase a (5-10 mU) is incubated with 25 mM Tris pH 7.5, 0.002 mMEGTA, 0.33 mg/mL myelin basic protein, 10 mM MgAcetate and [g-33P-ATP] (specific activity approx. 500 cpm/pmol, concentration as required). The reaction is initiated by the addition of the MgATP mix. After incubation for 40 minutes at room temperature, the reaction is stopped by the addition of 5 μL of a 3% phosphoric acid solution. 10 μL of the reaction is then spotted onto a P30 filtermat and washed three times for 5 minutes in 75 mM phosphoric acid and once in methanol prior to drying and scintillation counting.
# Duplicate data points are generated from a ⅓ log dilution series of a stock solution in DMSO. Nine dilutions steps are made from a top concentration of 10 μM, and a ‘no compound’ blank is included. The standard radiometric filter-binding assay is performed at an ATP concentration at, or close to, the Km. Data from scintillation counts are collected and subjected to free-fit analysis by Prism software. From the curve generated, the concentration giving 50% inhibition is determined and reported.
# T1 sequence (Q16539 whole entry): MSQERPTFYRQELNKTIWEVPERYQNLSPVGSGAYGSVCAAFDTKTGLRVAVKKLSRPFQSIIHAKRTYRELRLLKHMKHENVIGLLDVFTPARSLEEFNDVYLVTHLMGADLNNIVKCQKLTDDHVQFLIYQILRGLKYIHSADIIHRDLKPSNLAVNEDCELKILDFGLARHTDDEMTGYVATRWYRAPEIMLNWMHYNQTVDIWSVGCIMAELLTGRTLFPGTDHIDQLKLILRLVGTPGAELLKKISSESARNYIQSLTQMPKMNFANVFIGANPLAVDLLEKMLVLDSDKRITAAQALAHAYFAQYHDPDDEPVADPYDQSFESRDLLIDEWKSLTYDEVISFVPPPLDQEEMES
row,IC50 [µM],SMILES
1,< 0.1,"Nc1c(C(=O)c2ccc(F)cc2F)ccc(=O)n1-c1ccc(CN[C@H](C(=O)O)c2ccccc2)cc1 [Example 72, (S)-{4-[6-Amino-5-(2,4-difluorobenzoyl)-2-oxo-2H-pyridin-1-yl]benzylamino}phenylacetic acid]"
2,< 0.1,"Nc1c(C(=O)c2ccc(F)cc2F)ccc(=O)n1-c1ccc(CN[C@@H](Cc2ccccc2)C(=O)O)cc1 [Example 73, (S)-2-{4-[6-Amino-5-(2,4-difluorobenzoyl)-2-oxo-2H-pyridin-1-yl]benzylamino}-3-phenylpropionic acid]"
3,< 0.1,"CC(C)C[C@H](NCc1ccc(-n2c(N)c(C(=O)c3ccc(F)cc3F)ccc2=O)cc1)C(=O)O [Example 74, (S)-2-{4-[6-Amino-5-(2,4-difluorobenzoyl)-2-oxo-2H-pyridin-1-yl]benzylamino}-4-methylpentanoic acid]"
4,0.1 to 1,"Cc1cc(C(=O)c2ccc(=O)n(-c3ccc(CN[C@H](C(=O)O)c4ccccc4)cc3)c2N)ccc1F [Example 76, (S)-{4-[6-Amino-5-(3-methyl-4-fluorobenzoyl)-2-oxo-2H-pyridin-1-yl]benzylamino}phenylacetic acid]"
5,0.1 to 1,"Cc1cc(C(=O)c2ccc(=O)n(-c3ccc(CN[C@@H](CC(C)C)C(=O)O)cc3)c2N)ccc1F [Example 81, (S)-2-{4-[6-Amino-5-(3-Methyl-4-fluorobenzoyl)-2-oxo-2H-pyridin-1-yl]benzylamino}-4-methylpentanoic acid]"
6,< 0.1,Nc1c(C(=O)c2ccc(F)cc2)ccc(=O)n1-c1ccc(OCCCN[C@@H](Cc2ccccc2)C(=O)O)cc1 [Example 82]
7,< 0.1,"Nc1c(C(=O)c2ccc(F)cc2F)ccc(=O)n1-c1ccc(OCCCN[C@H](C(=O)O)c2ccccc2)cc1 [Example 84, (S)-(3-{4-[6-Amino-5-(2,4-difluorobenzoyl)-2-oxo-2H-pyridin-1-yl]-phenoxy}propylamino)phenyl acetic acid]"
8,0.1 to 1,Cc1cc(C(=O)c2ccc(=O)n(-c3ccc(OCCCN[C@H](C(=O)O)c4ccccc4)cc3)c2N)ccc1F [Example 87]
9,< 0.1,Nc1c(C(=O)c2ccc(F)cc2)ccc(=O)n1-c1c(F)cc(OCCCN[C@H](C(=O)O)c2ccccc2)cc1F [Example 89]
10,< 0.1,Nc1c(C(=O)c2ccc(F)cc2)ccc(=O)n1-c1c(F)cc(OCCCN[C@@H](Cc2ccccc2)C(=O)O)cc1F [Example 90]
11,< 0.1,"Nc1c(C(=O)c2ccc(F)cc2F)ccc(=O)n1-c1c(F)cc(OCCCN[C@H](C(=O)O)c2ccccc2)cc1F [Example 95, (S)-(3-{4-[6-Amino-5-(2,4-difluorobenzoyl)-2-oxo-2H-pyridin-1-yl]-3,5-difluorophenoxy}propylamino)phenyl acetic acid]"
12,< 0.1,Nc1c(C(=O)c2ccc(F)cc2)ccc(=O)n1-c1c(F)cc(OC2CCC(N[C@@H](Cc3ccccc3)C(=O)O)CC2)cc1F (stereo partly drawn) [Example 102]
13,< 0.1,"Nc1c(C(=O)c2ccc(F)cc2)ccc(=O)n1-c1c(F)cc(OC2CCC(N[C@H](C(=O)O)c3ccccc3)CC2)cc1F (stereo partly drawn) [Example 103, (2S)-[(4-{4-[6-amino-5-(4-fluorobenzoyl)-2-oxopyridin-1(2H)-yl]-3,5-difluorophenoxy}cyclohexyl)amino](phenyl)acetic acid]"
14,< 0.1,"CC(C)C[C@H](NC1CCC(Oc2cc(F)c(-n3c(N)c(C(=O)c4ccc(F)cc4)ccc3=O)c(F)c2)CC1)C(=O)O (stereo partly drawn) [Example 104, N-(4-{4-[6-amino-5-(4-fluorobenzoyl)-2-oxopyridin-1(2H)-yl]-3,5-difluorophenoxy}cyclohexyl)-L-leucine]"

# The remaining lines, values behind:
row,SMILES,IC50 [µM]
1,"Nc1c(C(=O)c2ccc(F)cc2)ccc(=O)n1-c1ccc(CN[C@H](C(=O)O)c2ccccc2)cc1 [Example 75, (S)-{4-[6-Amino-5-(4-fluorobenzoyl)-2-oxo-2H-pyridin-1-yl]benzylamino}phenylacetic acid]",0.1 to 1
2,"Nc1c(C(=O)c2ccc(F)cc2)ccc(=O)n1-c1ccc(CN[C@@H](Cc2ccccc2)C(=O)O)cc1 [Example 78, (S)-2-{4-[6-Amino-5-(4-fluorobenzoyl)-2-oxo-2H-pyridin-1-yl]benzylamino}-3-phenylpropionic acid]",0.1 to 1
3,"CC(C)C[C@H](NCc1ccc(-n2c(N)c(C(=O)c3ccc(F)cc3)ccc2=O)cc1)C(=O)O [Example 79, (S)-2-{4-[6-Amino-5-(4-fluorobenzoyl)-2-oxo-2H-pyridin-1-yl]benzylamino}-4-methylpentanoic acid]",0.1 to 1
4,"Cc1cc(C(=O)c2ccc(=O)n(-c3ccc(CN[C@@H](Cc4ccccc4)C(=O)O)cc3)c2N)ccc1F [Example 80, (S)-2-{4-[6-Amino-5-(3-methyl-4-fluorobenzoyl)-2-oxo-2H-pyridin-1-yl]benzylamino}-3-phenylpropionic acid]",< 0.1
5,"Cc1cc(C(=O)c2ccc(=O)n(-c3ccc(OCCCN[C@@H](Cc4ccccc4)C(=O)O)cc3)c2N)ccc1F [Example 83, (S)-2-(3-{4-[6-Amino-5-(3-methyl-4-fluorobenzoyl)-2-oxo-2H-pyridin-1-yl]phenoxy}propylamino)-3-phenyl propionic acid]",< 0.1
6,"CC(C)C[C@H](NCCCOc1ccc(-n2c(N)c(C(=O)c3ccc(F)cc3)ccc2=O)cc1)C(=O)O [Example 85, (S)-2-(3-{4-[6-Amino-5-(4-fluorobenzoyl)-2-oxo-2H-pyridin-1-yl]phenoxy}propylamino)-4-methylpentanoic acid]",< 0.1
7,"Nc1c(C(=O)c2ccc(F)cc2F)ccc(=O)n1-c1ccc(OCCCN[C@@H](Cc2ccccc2)C(=O)O)cc1 [Example 86, (S)-2-(3-{4-[6-Amino-5-(2,4-difluorobenzoyl)-2-oxo-2H-pyridin-1-yl]phenoxy}propylamino)-3-phenyl propionic acid]",> 1
8,"Cc1cc(C(=O)c2ccc(=O)n(-c3ccc(OCCCN[C@@H](CC(C)C)C(=O)O)cc3)c2N)ccc1F [Example 88, (S)-2-(3-{4-[6-Amino-5-(4-fluoro-3-methylbenzoyl)-2-oxo-2H-pyridin-1-yl]phenoxy}propylamino)-4-methylpentanoic acid]",< 0.1
9,CC(C)C[C@H](NCCCOc1cc(F)c(-n2c(N)c(C(=O)c3ccc(F)cc3)ccc2=O)c(F)c1)C(=O)O [Example 91],< 0.1
10,Nc1c(C(=O)c2ccc(F)cc2)ccc(=O)n1-c1c(F)cc(CN[C@@H](Cc2ccccc2)C(=O)O)cc1F [Example 92],< 0.1
11,"Cc1cc(C(=O)c2ccc(=O)n(-c3c(F)cc(OCCCN[C@@H](Cc4ccccc4)C(=O)O)cc3F)c2N)ccc1F [Example 93, (S)-2-(3-{4-[6-Amino-5-(4-fluoro-3-methylbenzoyl)-2-oxo-2H-pyridin-1-yl]-3,5-difluorophenoxy}propylamino)-3-phenylpropionic acid]",< 0.1
12,"Nc1c(C(=O)c2ccc(F)cc2)ccc(=O)n1-c1ccc(OCCCN[C@H](C(=O)O)c2ccccc2)cc1 [Example 94, (S)-(3-{4-[6-Amino-5-(4-fluorobenzoyl)-2-oxo-2H-pyridin-1-yl]-Phenoxy}propylamino)phenylacetic acid]",< 0.1
13,"CC(C)C[C@H](NCCCOc1ccc(-n2c(N)c(C(=O)c3ccc(F)cc3F)ccc2=O)cc1)C(=O)O [Example 96, (S)-2-(3-{4-[6-Amino-5-(2,4-difluorobenzoyl)-2-oxo-2H-pyridin-1-yl]phenoxy}propylamino)-4-methyl pentanoic acid]",< 0.1
14,"CC(C)C[C@H](NCCCOc1cc(F)c(-n2c(N)c(C(=O)c3ccc(F)cc3F)ccc2=O)c(F)c1)C(=O)O [Example 97, (S)-2-(3-{4-[6-Amino-5-(2,4-difluorobenzoyl)-2-oxo-2H-pyridin-1-yl]-3,5-difluorophenoxy}propylamino)-4-methyl pentanoic acid]",< 0.1
15,"Cc1cc(C(=O)c2ccc(=O)n(-c3c(F)cc(OCCCN[C@@H](CC(C)C)C(=O)O)cc3F)c2N)ccc1F [Example 98, (S)-2-(3-{4-[6-Amino-5-(4-fluoro-3-methylbenzoyl)-2-oxo-2H-pyridin-1-yl]-3,5-difluorophenoxy}propylamino)-4-methylpentanoic acid]",< 0.1
16,"Cc1cc(C(=O)c2ccc(=O)n(-c3c(F)cc(OCCCN[C@H](C(=O)O)c4ccccc4)cc3F)c2N)ccc1F [Example 99, (S)-(3-{4-[6-Amino-5-(4-fluoro-3-methylbenzoyl)-2-oxo-2H-pyridin-1-yl]-3,5-difluorophenoxy}propylamino)phenylacetic acid]",< 0.1
17,"Nc1c(C(=O)c2ccc(F)cc2F)ccc(=O)n1-c1c(F)cc(OCCCN[C@@H](Cc2ccccc2)C(=O)O)cc1F [Example 100, (S)-2-(3-{4-[6-Amino-5-(2,4-difluorobenzoyl)-2-oxo-2H-pyridin-1-yl]-3,5-difluorophenoxy}-propylamino)-3-phenyl propionic acid]",< 0.1
18,CC(C)C[C@H](NCc1cc(F)c(-n2c(N)c(C(=O)c3ccc(F)cc3F)ccc2=O)c(F)c1)C(=O)O [Example 101],< 0.1
19,"Nc1c(C(=O)c2ccc(F)cc2)ccc(=O)n1C1CCC(N[C@@H](Cc2ccccc2)C(=O)O)CC1 (stereo partly drawn) [Example 105, (S)-2-{4-[6-Amino-5-(4-fluorobenzoyl)-2-oxo-2H-pyridin-1-yl]cyclohexylamino}-3-phenylpropionic acid]",0.1 to 1
